Among the data in PubChem BioAssay (NCI) are TGI values, retold here.

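Cells were grown in 96-well plates and exposed to each compound for 48 hours at five concentrations; endpoints were interpolated linearly between bracketing concentrations, or set to the highest concentration if not reached. The concentration for full growth arrest is given as TGI.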 Some results are limits rather than exact numbers.

Holding throughout (experiment): NCI anticancer screen, dose series, 48 h
Assay [1] has as its system SF-539 CNS.
The subject of assay [2] is NCI-H460 lung.
Assay [3] has as its system RXF 393 renal.
The subject of assay [4] is 786-0 renal.
For assay [5], the system named is UACC-62 melanoma.
The subject of assay [6] is NCI-H522 lung.
In assay [7] the test system is SK-OV-3 ovarian.
The subject of assay [8] is NCI-H226 lung.
The test system of assay [9] is SNB-75 CNS.
The test system of assay [10] is HCT-15 colon.
The subject of assay [11] is SNB-19 CNS.
In assay [12] the test system is EKVX NSCLC.
The subject of assay [13] is UACC-257 melanoma.
Assay [14] deals with NCI/ADR-RES ovarian.
In assay [15] the test system is M14 melanoma.
Assay [16] has as its system MCF7 breast.
The subject of assay [17] is HL-60(TB) leukemia.

Regarding `Fc1ccccc1-c1nn2c(C34CC5CC(CC(C5)C3)C4)nnc2s1`, the TGI in assay [1], in assay [2], in assay [3], in assay [4], in assay [5] and in [6] was above 100 µM in each case. Moreover, the TGI in [7], in assay [8], in assay [9], in assay [10], in assay [11] and in assay [12] was above 100 µM in each case. In addition, the TGI in assay [13], in assay [14] and in assay [15] was above 100 µM each time.
Regarding `COc1cc(NP(=O)(Oc2ccccc2)Oc2ccccc2)ccc1Nc1c2ccccc2nc2c1[nH]c1ccccc12`, the TGI was determined as 29.2 µM in [2]; 14.1 µM in assay [3]; 1.58 µM in assay [4]; 8.58 µM in assay [5]; 7.32 µM in [6]; 20.9 µM in [7]. For the same molecule, the TGI is 20.2 µM in assay [8]; 5.7 µM in assay [9]; 25.7 µM in assay [16]; above 37.3 µM in assay [10]; above 100 µM in [11]; 44.9 µM in [12]. Also, the figures for the TGI in [13], in [14] and in [15] were above 48.5 µM, 20.9 µM and 7.02 µM, respectively.
For `O=C(c1ccco1)N(C(=S)N1CCN(c2ccccn2)CC1)C1CCCCC1`, the TGI in assay [1], in assay [2], in assay [3], in assay [4], in [5] and in [6] was above 100 µM throughout. The TGI in assay [7], in assay [8], in assay [9], in assay [10], in assay [11] and in assay [17] was above 100 µM throughout. Besides, the TGI in assay [13] and in assay [15] was above 100 µM each time.
Take `CCCn1c(SCC)c2cc3cc4ccccc4cc3cc2c1-c1nc(F)nc(F)n1`: the TGI in assay [1], in assay [2], in [3], in assay [4], in [6] and in assay [7] was above 100 µM throughout. Moreover, the TGI in assay [8], in [9], in assay [10], in [11], in assay [12] and in [17] was above 100 µM in each case. In addition, the TGI in [13] and in assay [15] was above 100 µM throughout.
With `CC(C)C1CCC/C=C/C=C/C=C/C=C/C(OC2OC(C)C(O)C(N)C2O)CC2OC(O)(CC(O)CC(O)C(O)CCC(=O)O1)CC(O)C2C(=O)O` (configuration not stated), the TGI in assay [1], in assay [4], in assay [5], in [6], in assay [7] and in assay [9] was above 52.5 µM in each case. Further, the TGI in assay [10], in [11], in assay [17] and in [15] was above 52.5 µM throughout.
With `COC(=O)C1[C@@H](C(=O)OC)C12C=Cc1ccccc1C=C2` (some centres not stated), the TGI in assay [1], in assay [2], in [3], in assay [4], in assay [5] and in assay [6] was above 100 µM throughout. The TGI in assay [7], in assay [10], in assay [11], in [12], in assay [17] and in assay [13] was above 100 µM each time. The TGI in [15] is above 100 µM.
As to `CC1(C)CCC[C@@]2(C)C1CC[C@H]1CC(O)C3(C)CCC12C3` (some centres not stated), the TGI in assay [1] amounted to 33 µM; in assay [2], 32.8 µM; in assay [3], 26.1 µM; in [4], 31.5 µM; in assay [5], 29.2 µM; in assay [6] it was 30.3 µM. Also, the TGI in assay [7] stood at 36.3 µM; in assay [8] it was 34.3 µM; in assay [9], 39.3 µM; in assay [10], 32.9 µM; in assay [11], 31.9 µM; in assay [17] it was 51.2 µM. Moreover, the TGI in assay [13] is 32.1 µM; in assay [15], 31 µM.
`C#C[C@]1(O)CCC2C3CCc4cc(Oc5nc(F)nc(-c6c7cc8ccccc8cc7c7n6CCS7)n5)ccc4C3CCC21C` (some centres not stated): the TGI in [1] is above 100 µM; in [2] it was above 100 µM; in assay [3], above 100 µM; in assay [4], above 100 µM; in assay [5] it was 55.3 µM; in assay [6] it was 62.7 µM. The TGI in assay [7], in [8], in assay [9], in assay [11], in assay [12] and in assay [17] was above 100 µM each time. The TGI in assay [13] is above 100 µM; in assay [15] it was 96 µM.
For the molecule `COC(=O)c1ccccc1/C=C1\Cc2cc(C)cc(C)c2C1=O`, the TGI in assay [1], in [2], in assay [3], in assay [4], in [5] and in assay [6] was above 100 µM in each case. Further, the TGI in [8], in [9], in assay [16], in assay [10], in [11] and in assay [12] was above 100 µM in each case. For the same molecule, the TGI in [17] and in assay [13] was above 100 µM each time.
Turning to `CSc1nc(NC(=O)O)c(N(C(C)=O)C(=O)O)c(=O)n1C`, the TGI in [1], in assay [2], in assay [3], in [4], in assay [5] and in assay [8] was above 100 µM throughout. The TGI in [10], in assay [11], in assay [12], in assay [17], in assay [13] and in [15] was above 100 µM each time.
`CC1=CC(=O)C(=O)C2=C1OC1(C2)C(C)CCC2C3(C)CCC(O)C(C)(C)C3CCC21C` (configuration not stated): the TGI in [1] was above 100 µM; in assay [2], 35.1 µM; in [3] it was 33.2 µM; in assay [4], 33.3 µM; in assay [5] it was 36.1 µM; in assay [6] it was 30.7 µM. For the same molecule, the TGI was 73.8 µM in assay [7]; 35.5 µM in [8]; above 100 µM in assay [9]; 42.1 µM in assay [10]; 32.2 µM in [11]; 5.51 µM in assay [17]. Besides, the TGI in assay [13] came out at 34.3 µM; in assay [15], 37.2 µM.
Regarding `Cc1ccc(SCC(CF)OCn2cc(F)c(=O)[nH]c2=O)cc1` (configuration not stated), the TGI in assay [1], in assay [2], in [3], in assay [4], in assay [6] and in assay [7] was above 100 µM throughout. In addition, the TGI in [16], in [10], in assay [11], in [12], in assay [17] and in assay [13] was above 100 µM each time. Moreover, the TGI in assay [14] and in [15] was above 100 µM throughout.
For `Cc1cccc2[s+]snc12`, the TGI in assay [1] was above 100 µM; in [2] it was above 100 µM; in assay [3] it was above 75.1 µM; in [4], above 100 µM; in assay [5], above 100 µM; in assay [6], 35.9 µM. The TGI in assay [7] was above 100 µM; in assay [8] it was above 100 µM; in assay [9], above 100 µM; in assay [10], above 72.3 µM; in assay [11] it was above 100 µM; in [12] it was above 77.4 µM. Moreover, the TGI in assay [17] was 41.8 µM; in assay [13] it was above 100 µM; in assay [15], above 100 µM.
Consider `O=C(c1cccs1)N(C(=S)N1CCN(c2ccccn2)CC1)C1CCCCC1`, for which the TGI in [1], in [2], in [3], in assay [4], in assay [5] and in [6] was above 100 µM throughout. The TGI was above 100 µM in assay [7]; 73.8 µM in assay [8]; above 100 µM in [9]; above 100 µM in assay [10]; above 100 µM in [11]; above 100 µM in assay [17]. The TGI in assay [13] and in assay [15] was above 100 µM throughout.
In the case of `COc1cc(C=Nc2ccc(C(C)C)cc2)cc(OC)c1OC`, the TGI in assay [1], in [2], in assay [3], in assay [4], in assay [5] and in assay [6] was above 100 µM in each case. The TGI in assay [7], in [8], in assay [9], in [10], in assay [11] and in assay [12] was above 100 µM in each case. Besides, the TGI in assay [17] was above 82.3 µM; in assay [13], above 100 µM; in assay [15] it was above 100 µM.
